These results are taken from patent US7803801B2, “Aminopyridine compounds having Syk inhibitory activity” (Japan Tobacco, Inc., priority 2005, dated 2010).

Each structure is given as a SMILES string. pIC50: −log10 of the molar value. Where a name gives a salt, the structure may show the parent alone. Read-outs that look alike come from different tables or passages of the source. Some results are limits rather than exact numbers.

The target of the assay is GST-Syk Full Protein (human) (Homo sapiens, UniProt P43405). As to the kind of experiment: Syk kinase inhibition test (HTRF method). The class given is biochemical. In short, it runs like this:
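Human GST-Syk full-length (6.4 nM) phosphorylated biotin-EDPDYEWPSA-NH2 (250 nM) with 100 μM ATP in HEPES pH 7.0/MgCl2 buffer, 2% DMSO, 30 min at room temperature. EDTA stop, then HTRF detection (streptavidin-XL665, Eu anti-phosphotyrosine) after 1 h; 665/620 ratio read.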

Where [1] appears, read: Tables 1-x, compounds A, read-out: sykHTRF ave IC50.
The mark [2] stands for this setting: Tables 2-x, thiophene compounds B, read-out: sykHTRK ave IC50.
[3] abbreviates: HTRF, 100 μM ATP, 30 min room temperature, average, read-out: sykHTRF ave IC50.

For the molecule `N#Cc1ccnc(Nc2cccc(-c3cnc(N4CCC(CC(=O)O)CC4)s3)n2)c1` [Compound A-650, (1-{5-[6-(4-cyanopyridin-2-ylamino)pyridin-2-yl]thiazol-2-yl}piperidin-4-yl)acetic acid dihydrochloride], the pIC50 under setting [1] was above 7.00.

As for `Cc1ccnc(Nc2cccc(-c3cnc(N4CCC(C5=NC(C)(C)CO5)CC4)s3)n2)c1` [Compound A-456], the pIC50 under setting [1] was 6.00 to 7.00.

`Cc1ccnc(Nc2cccc(-c3cnc(N4CCC(C(=O)N(C)CCO)CC4)s3)n2)c1` [Compound A-448]: the pIC50 under setting [1] was 6.00 to 7.00.

Consider `Cc1ccnc(Nc2cccc(-c3ccc(CNC(=O)[C@H]4CC[C@H](C(=O)O)CC4)s3)n2)c1` [Compound B-121], for which the pIC50 under setting [2] is 6.00 to 7.00. Regarding `Cc1ccnc(Nc2cccc(-c3cnc(N(C)CCCCCC(=O)O)s3)n2)c1` [Compound A-645, 6-(N-methyl-N-{5-[6-(4-methylpyridin-2-ylamino)pyridin-2-yl]thiazol-2-yl}amino)hexanoic acid dihydrochloride], the pIC50 under setting [1] was above 7.00. As to `Cc1ccnc(Nc2cccc(-c3ccc(C(=O)N4CCC(C(=O)O)CC4)s3)n2)c1` [Compound B-115], the pIC50 under setting [2] was 6.00 to 7.00. On to `C=CCN(CC=C)c1ncc(-c2cccc(Nc3cc(C)ccn3)n2)s1` [Compound A-507, N,N-diallyl-N-{5-[6-(4-methylpyridin-2-ylamino)pyridin-2-yl]thiazol-2-yl}amine], for which the pIC50 under setting [1] was above 7.00. As to `Cc1ccc(Nc2cccc(-c3cnc(N4CCC(CC(=O)O)CC4)s3)n2)nc1` [Compound A-629], the pIC50 under setting [1] is 6.00 to 7.00. As for `CCOC(=O)N1CCC(N(C)c2ncc(-c3cccc(Nc4cc(C)ccn4)n3)s2)CC1` [Compound A-445], under setting [1], the pIC50 was 6.00 to 7.00. Same read-out and setting: for `CC(C)(C(=O)O)C1CCN(c2ncc(-c3cccc(Nc4ccccn4)n3)s2)CC1` [Compound A-714, 2-methyl-2-(1-{5-[6-(pyridin-2-ylamino)pyridin-2-yl]thiazol-2-yl}piperidin-4-yl)propionic acid] the value was above 7.00. For `Cc1ccnc(Nc2cccc(-c3ccc(CN(Cc4ccc(C(=O)O)cc4)C(=O)C(C)C)s3)n2)c1` [Compound B-127, 4-[(N-isobutyryl-N-{5-[6-(4-methylpyridin-2-ylamino)pyridin-2-yl]thiophen-2-ylmethyl}amino)methyl]benzoic acid], the pIC50 under setting [2] is above 7.00. Regarding `CCOC(=O)Cc1ccnc(Nc2cccc(-c3cnc([C@H](C)NC(C)=O)s3)n2)c1` [Compound A-329], the pIC50 under setting [3] was 6.00 to 7.00. Take `Cc1ccnc(Nc2cccc(-c3cnc(N(C)C(C(N)=O)C(C)C)s3)n2)c1` (stereo not drawn) [Compound A-668, 3-methyl-2-(N-methyl-N-{5-[6-(4-methylpyridin-2-ylamino)pyridin-2-yl]thiazol-2-yl}amino)butylamide]: the pIC50 under setting [1] is above 7.00. As for `CON(C)C(=O)c1nc([C@H](C)NC(C)=O)sc1-c1cccc(Nc2cc(C)ccn2)n1` [Compound A-125], under setting [3], the pIC50 was below 6.00. With `Cc1ccnc(Nc2cccc(-c3cnc(N4CCC(CC(=O)NS(C)(=O)=O)CC4)s3)n2)c1` [Compound A-633, N-[2-(1-{5-[6-(4-methylpyridin-2-ylamino)pyridin-2-yl]thiazol-2-yl}piperidin-4-yl)acetyl]methanesulfonamide], the pIC50 under setting [1] is above 7.00.

For the molecule `NC(=O)[C@@H]1CCCN1c1ncc(-c2cccc(Nc3ccccn3)n2)s1` [Compound A-690], the pIC50 under setting [1] was 6.00 to 7.00. On the same count and under the same terms, in the case of `Cc1ccnc(Nc2cccc(-c3cnc(N4CCC[C@H]4C(=O)N4CCC(O)CC4)s3)n2)c1` [Compound A-659] it was 6.00 to 7.00; in that of `O=C(O)Cc1ccnc(Nc2cccc(-c3cnc(N4CC[C@@H](O)C4)s3)n2)c1` [Compound A-557], 6.00 to 7.00. On the same count and under the same terms, for `Cc1ccnc(Nc2cccc(-c3cnc(N4CCN(CC(=O)NCCO)C(=O)C4)s3)n2)c1` [Compound A-468, N-(2-hydroxyethyl)-2-(4-{5-[6-(4-methylpyridin-2-ylamino)pyridin-2-yl]thiazol-2-yl}-2-oxopiperazin-1-yl)acetamide] the value was above 7.00. Turning to `Cc1ccnc(Nc2cccc(-c3ccc(CN(Cc4ccc(C(=O)O)cc4)C(=O)CO)s3)n2)c1` [Compound B-128, 4-[(N-(2-hydroxyacetyl)-N-{5-[6-(4-methylpyridin-2-ylamino)pyridin-2-yl]thiophen-2-ylmethyl}amino)methyl]benzoic acid], the negative logarithm of the IC50 (pIC50) under setting [2] is above 7.00. The same measure, in the same setting: for `Cc1ccnc(Nc2cccc(-c3ccc(COc4ccc(C(=O)O)cc4)s3)n2)c1` [Compound B-105] the value was 6.00 to 7.00.

For the molecule `Cc1ccnc(Nc2cccc(-c3ccc(CN(C)C(=O)[C@H]4CC[C@H](C(=O)O)CC4)s3)n2)c1` [Compound B-123], the pIC50 under setting [2] is 6.00 to 7.00. For `CC(C)c1ccnc(Nc2cccc(-c3cnc(N4CCC(CC(=O)O)CC4)s3)n2)c1` [Compound A-711, (1-{5-[6-(4-isopropylpyridin-2-ylamino)pyridin-2-yl]thiazol-2-yl}piperidin-4-yl)acetic acid dihydrochloride], the pIC50 under setting [1] was above 7.00.

As to `COC(=O)N(CC(=O)O)Cc1ncc(-c2cccc(Nc3cc(C)ccn3)n2)s1` [Compound A-583], under setting [1], the negative logarithm of the IC50 (pIC50) is 6.00 to 7.00.
